From ChEMBL document CHEMBL1671830, “Discovery of PSI-353661, a Novel Purine Nucleotide Prodrug for the Treatment of HCV Infection” (ACS Med Chem Lett, 2011)

Tests used:
Assay type in all cases: ADME, organism-based
Conditions in all cases: in vivo
Liver [1] = test: Metabolic stability in rat liver assessed as (2S)-2-((((2R,3R,4R,5R)-5-(2-amino-6-methoxy-9H-purin-9-yl)-4-fluoro-3-hydroxy-4-methyltetrahydrofuran-2-yl)methoxy)(hydroxy)phosphorylamino)propanoic acid level at 60 uCi, po after 6 hrs
Liver [2] = test: Metabolic stability in rat liver assessed as beta-D-2'-Deoxy-2'-R-fluoro-2'-beta-C-methylguanosine level at 60 uCi, po after 6 hrs
Plasma [3] = test: Metabolic stability in rat plasma assessed as (2S)-2-((((2R,3R,4R,5R)-5-(2-amino-6-methoxy-9H-purin-9-yl)-4-fluoro-3-hydroxy-4-methyltetrahydrofuran-2-yl)methoxy)(hydroxy)phosphorylamino)propanoic acid level at 60 uCi, po after 6 hrs
Liver [4] = test: Metabolic stability in rat liver assessed as ((2R,3R,4R,5R)-5-(2-amino-6-oxo-1H-purin-9(6H)-yl)-4-fluoro-3-hydroxy-4-methyltetrahydrofuran-2-yl)methyl tetrahydrogen triphosphate level at 60 uCi, po after 1 hr
Plasma [5] = test: Metabolic stability in rat plasma assessed as beta-D-2'-Deoxy-2'-R-fluoro-2'-beta-C-methylguanosine level at 60 uCi, po after 6 hrs
Plasma [6] = test: Metabolic stability in rat plasma assessed as beta-D-2'-Deoxy-2'-R-fluoro-2'-beta-C-methylguanosine level at 60 uCi, po after 1 hr
Liver [7] = test: Metabolic stability in rat liver assessed as ((2R,3R,4R,5R)-5-(2-amino-6-oxo-1H-purin-9(6H)-yl)-4-fluoro-3-hydroxy-4-methyltetrahydrofuran-2-yl)methyl trihydrogen diphosphate level at 60 uCi, po after 6 hrs
Plasma [8] = test: Metabolic stability in rat plasma assessed as (2S)-isopropyl 2-((((2R,3R,4R,5R)-5-(2-amino-6-methoxy-9H-purin-9-yl)-4-fluoro-3-hydroxy-4-methyltetrahydrofuran-2-yl)methoxy)(phenoxy)phosphorylamino)propanoate level at 60 uCi, po after 1 hr
Liver [9] = test: Metabolic stability in rat liver assessed as ((2R,3R,4R,5R)-5-(2-amino-6-oxo-1H-purin-9(6H)-yl)-4-fluoro-3-hydroxy-4-methyltetrahydrofuran-2-yl)methyl tetrahydrogen triphosphate level at 60 uCi, po after 6 hrs
Liver [10] = test: Metabolic stability in rat liver assessed as ((2R,3R,4R,5R)-5-(2-amino-6-oxo-1H-purin-9(6H)-yl)-4-fluoro-3-hydroxy-4-methyltetrahydrofuran-2-yl)methyl dihydrogen phosphate level at 60 uCi, po after 6 hrs
Liver [11] = test: Metabolic stability in rat liver assessed as beta-D-2'-Deoxy-2'-R-fluoro-2'-beta-C-methylguanosine level at 60 uCi, po after 1 hr
Plasma [12] = test: Metabolic stability in rat plasma assessed as (2S)-2-((((2R,3R,4R,5R)-5-(2-amino-6-methoxy-9H-purin-9-yl)-4-fluoro-3-hydroxy-4-methyltetrahydrofuran-2-yl)methoxy)(hydroxy)phosphorylamino)propanoic acid level at 60 uCi, po after 1 hr
Plasma [13] = test: Metabolic stability in rat plasma assessed as (2S)-isopropyl 2-((((2R,3R,4R,5R)-5-(2-amino-6-methoxy-9H-purin-9-yl)-4-fluoro-3-hydroxy-4-methyltetrahydrofuran-2-yl)methoxy)(phenoxy)phosphorylamino)propanoate level at 60 uCi, po after 6 hrs
Liver [14] = test: Metabolic stability in rat liver assessed as ((2R,3R,4R,5R)-5-(2-amino-6-oxo-1H-purin-9(6H)-yl)-4-fluoro-3-hydroxy-4-methyltetrahydrofuran-2-yl)methyl trihydrogen diphosphate level at 60 uCi, po after 1 hr
Liver [15] = test: Metabolic stability in rat liver assessed as ((2R,3R,4R,5R)-5-(2-amino-6-oxo-1H-purin-9(6H)-yl)-4-fluoro-3-hydroxy-4-methyltetrahydrofuran-2-yl)methyl dihydrogen phosphate level at 60 uCi, po after 1 hr
Liver [16] = test: Metabolic stability in rat liver assessed as (2S)-2-((((2R,3R,4R,5R)-5-(2-amino-6-methoxy-9H-purin-9-yl)-4-fluoro-3-hydroxy-4-methyltetrahydrofuran-2-yl)methoxy)(hydroxy)phosphorylamino)propanoic acid level at 60 uCi, po after 1 hr
Plasma [17] = test: Metabolic stability in rat plasma assessed as PSI-353661 level at 60 uCi, po after 6 hrs
Plasma [18] = test: Metabolic stability in rat plasma assessed as PSI-353661 level at 60 uCi, po after 1 hr

- Stability (Liver [1]): 572 cpm
- Stability (Liver [2]): 11512 cpm
- Stability (Plasma [3]): 288 cpm
- Stability (Liver [4]): 384 cpm
- Stability (Plasma [5]): 3848 cpm
- Stability (Plasma [6]): 1376 cpm
- Stability (Liver [7]): 1620 cpm
- Stability (Plasma [8]): 1160 cpm
- Stability (Liver [9]): 460 cpm
- Stability (Liver [10]): 1920 cpm
- Stability (Liver [11]): 4224 cpm
- Stability (Plasma [12]): 920 cpm
- Stability (Plasma [13]): 272 cpm
- Stability (Liver [14]): 988 cpm
- Stability (Liver [15]): 1828 cpm
- Stability (Liver [16]): 1648 cpm
- Stability (Plasma [17]): 368 cpm
- Stability (Plasma [18]): 1112 cpm
SMILES: [3H]c1nc2c(OC)nc(N)nc2n1[C@@H]1O[C@H](COP(=O)(O)N[C@@H](C)C(=O)OC(C)C)[C@@H](O)[C@@]1(C)F
